Measured values taken from patent US6498179B1, “Oxazole derivatives, their production and use” (Takeda Chemical Industries, Ltd., priority 1996, dated 2002).
Read-outs that look alike come from different tables or passages of the source.

Legend:
[1] = system: MIN6 cells; test: Insulinotropic effect on MIN6 cells; format: cell-based, mouse; settings: compound 10 μM, 12.5 mM glucose, 2 hours, percentage of control
Experimental: MIN6 cells established from mouse beta cell tumor were cultured in DMEM supplemented with 15% fetal bovine serum on 12-well plate at 37° C. in 5% CO2, and were used at the stage of subconfluency. Cells were washed twice with PBS and incubated in Krebs-Ringer HEPES(KRH) containing with 0.1 mM glucose for 30 minutes. Then they were incubated in KRH containing with 12.5 mM glucose and 0.1% DMSO (control) or compound (10 μM) for 2 hours. Medium was collected and insulin concentration was measured using a commercial radioimmunoassay kit (Amarsham Inc.). The plate was washed once with PBS and cellular protein content was determined by the method of Lowrey et al. (J. Biol. Chem. 193, 265-275, 1951). Insulinotropic activity of the compound was indicated as percentage of control (Table 2).

[2] = system: KKA^y mice; test: Test for blood sugar depression in mice; format: in vivo; settings: Mus musculus, fasted male KKA^y mice, oral 30 mg/kg, compared with control group
Experimental: After being fasted for 20 hours, 9- to 12-week-old, male KKA^y mice (five mice in each group) were orally given the test compound at a dose of 30 mg/kg/10 ml through a stomach tube. Control mice were orally given 5% gum arabic solution. Blood samples (70 μl) were obtained from orbital venous plexus through capillary tube before and 60 and 120 minutes after the administration of the test compound. Blood glucose was determined according to a glucose oxidase method using a commercial kit (Iatrochem, GIU(A), Iatron Labs. Inc.). Blood glucose level at 60 or 120 minutes of the test groups was compared with that of control group, and was shown as blood glucose depression (%) (Table 1).

Compound: Cc1nccn1-c1nc(-c2ccc(Cl)cc2)c(CCCO)o1 [Example 36, 4-(4-chlorophenyl)-2-(2-methyl-1-imidazolyl)-5-oxazolepropanol]
- Insulin secretion-promoting effect (%) [1]: 272%
- inhibition in vivo at 30 mg/kg ([2]; 1 h, 60 minutes after administration, read-out: Degree of Blood Glucose Depression (%) After 60 minutes): 23%
- inhibition in vivo at 30 mg/kg ([2]; 2 h, 120 minutes after administration, read-out: Degree of Blood Glucose Depression (%) After 120 minutes): 18%

Compound: Cc1nccn1-c1nc(-c2ccc(Cl)cc2)c(CCCCO)o1 [Example 65, 4-(4-chlorophenyl)-2-(2-methyl-1-imidazolyl)-5-oxazolebutanol]
- Insulin secretion-promoting effect (%) [1]: 397%
- melting point: 110 to 111 °C

Compound: Cc1nccn1-c1nc(-c2ccc(Cl)cc2)c(CCCn2ccnc2)o1 [Example 72, 4-(4-chlorophenyl)-5-[3-(1-imidazolyl)propyl]-2-(2-methyl-1-imidazolyl)oxazole]
- Insulin secretion-promoting effect (%) [1]: 303%
- melting point: 133 to 134 °C

Compound: Cc1nc(-c2nc(-c3ccc(Cl)cc3)c(CCCCCO)o2)c[nH]1 [Example 83, 4-(4-chlorophenyl)-2-(2-methyl-imidazolyl)-5-oxazolepentanol]
- Insulin secretion-promoting effect (%) [1]: 359%
- melting point: 94 to 95 °C

Compound: Cc1nccn1-c1nc(-c2ccc(Cl)cc2)c(CCCCn2ccnc2)o1 [Example 89, 4-(4-chlorophenyl)-5-[4-(1-imidazolyl)butyl]-2-(2-methyl-1-imidazolyl)oxazole]
- Insulin secretion-promoting effect (%) [1]: 385%
- melting point: 84 to 85 °C
